# In patent US20240262819A1, “NOVEL COMPOUNDS HAVING INHIBITORY ACTIVITY AGAINST GLUCOSYLCERAMIDE SYNTHASE OR PHARMACEUTICALLY ACCEPTABLE SALT THEREOF, PROCESSES FOR PREPARING THE SAME, AND PHARMACEUTICAL COMPOSITIONS COMPRISING THE SAME” (YUHAN CORPORATION, priority 2021, published 2024):
# pIC50: −log10 of the molar value. Like-named read-outs stand apart in the source and are kept apart here.
# Assays:
# [1] = biological target: glucosylceramide synthase (GCS) (Homo sapiens (Human), UniProt Q16739); assay: Evaluation of inhibitory activities against GCS (A549 cell lysate, NBD C6-ceramide, HPLC); type: biochemical
# Method in brief: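 GCS activity in A549 cell lysate (50 mM HEPES, pH 7.3) with NBD C6-ceramide, reacted 90 min at 37 °C. Lipids were chloroform/methanol-extracted and separated by normal-phase HPLC with fluorescence detection (ex 470/em 530 nm). GlcCer fraction of peak area was normalized between DMSO and ibiglustat, and IC50 obtained by curve fitting.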
# [2] = test system: GM1 production in Jurkat cells; assay: cells; type: cell-based
# [3] = % GCS activity, A549 cell lysate, 37° C. for 90 minutes, read-out: IC50
# Chain of glucosylceramide synthase (GCS) (Q16739 whole entry): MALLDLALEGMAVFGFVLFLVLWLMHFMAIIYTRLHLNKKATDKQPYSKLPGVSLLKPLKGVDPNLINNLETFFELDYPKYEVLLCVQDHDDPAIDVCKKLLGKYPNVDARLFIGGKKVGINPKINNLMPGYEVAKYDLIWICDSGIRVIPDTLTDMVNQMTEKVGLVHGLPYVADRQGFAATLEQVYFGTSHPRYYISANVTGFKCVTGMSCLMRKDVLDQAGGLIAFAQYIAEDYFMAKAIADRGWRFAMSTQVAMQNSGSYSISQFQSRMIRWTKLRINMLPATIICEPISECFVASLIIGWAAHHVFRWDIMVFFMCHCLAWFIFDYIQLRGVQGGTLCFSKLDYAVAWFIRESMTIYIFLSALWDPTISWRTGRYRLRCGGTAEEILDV
Molecule,pIC50 [1],"pIC50 ([2]; Homo sapiens, Jurkat, 72 h)","pIC50 [1, 3]",pIC50 ([2]; read-out: IC50)
"CCOc1cc2c(cc1-c1ccc(CC(C)C)cc1)CC(C)(C)[C@H]2NC(=O)O[C@@H]1CN2CCC1CC2 [Example 131, (S)-quinuclidin-3-yl((R)-6-ethoxy-5-(4-isobutylphenyl)-2,2-dimethyl-2,3-dihydro-1H-inden-1-yl)carbamate]",8.70,8.19,–,–
"CCCCOc1c(C)cc(-c2cc3c(cc2F)[C@H](NC(=O)O[C@@H]2CN4CCC2CC4)C(C)(C)CC3)cc1C [Example 183, (S)-quinuclidin-3-yl((R)-6-(4-butoxy-3,5-dimethylphenyl)-7-fluoro-2,2-dimethyl-1,2,3,4-tetrahydronaphthalen-1-yl)carbamate]",8.80,8.12,–,–
"COc1ccc(-c2cc3c(cc2C)[C@H](NC(=O)O[C@@H]2CN4CCC2CC4)C(C)(C)C3)c(F)c1 [Example 126, (S)-quinuclidin-3-yl((R)-5-(2-fluoro-4-methoxyphenyl)-2,2,6-trimethyl-2,3-dihydro-1H-inden-1-yl)carbamate]",8.83,7.74,–,–
"CC1(C)Cc2cc(-c3ccc(OCC4CC4)cc3Cl)c(F)cc2[C@@H]1NC(=O)O[C@@H]1CN2CCC1CC2 [Example 98, (S)-quinuclidin-3-yl((R)-5-(2-chloro-4-(cyclopropylmethoxy)phenyl)-6-fluoro-2,2-dimethyl-2,3-dihydro-1H-inden-1-yl)carbamate]",10.22,9.70,–,–
"CCOc1ccc(-c2ccc3c(c2)CCC(C)(C)[C@H]3NC(=O)O[C@@H]2CN3CCC2CC3)cc1 [Example 143, (S)-quinuclidin-3-yl((R)-6-(4-ethoxyphenyl)-2,2-dimethyl-1,2,3,4-tetrahydronaphthalen-1-yl) carbamate]",–,–,9.48,8.38
"CCOc1c(C)cc(-c2ccc3c(c2)CCC(C)(C)[C@H]3NC(=O)O[C@@H]2CN3CCC2CC3)cc1C [Example 164, (S)-quinuclidin-3-yl((R)-6-(4-ethoxy-3,5-dimethylphenyl)-2,2-dimethyl-1,2,3,4-tetrahydronaphthalen-1-yl)carbamate]",8.86,8.08,–,–
"CCc1ccc(-c2ccc3c(c2)CCC(C)(C)[C@H]3NC(=O)O[C@@H]2CN3CCC2CC3)cc1 [Example 139, (S)-quinuclidin-3-yl((R)-6-(4-ethylphenyl)-2,2-dimethyl-1,2,3,4-tetrahydronaphthalen-1-yl)carbamate]",9.59,8.52,–,–
"CCc1ccc(-c2ccc3c(c2)CCC(C)(C)[C@H]3NC(=O)O[C@@H]2CN3CCC2CC3)cc1F [Example 169, (S)-quinuclidin-3-yl((R)-6-(4-ethyl-3-fluorophenyl)-2,2-dimethyl-1,2,3,4-tetrahydronaphthalen-1-yl)carbamate]",9.85,8.77,–,–
"CC(C)COc1cc(F)cc(-c2ccc3c(c2)CC(C)(C)[C@H]3NC(=O)O[C@@H]2CN3CCC2CC3)c1 [Example 50, (S)-quinuclidin-3-yl((R)-5-(3-fluoro-5-isobutoxyphenyl)-2,2-dimethyl-2,3-dihydro-1H-inden-1-yl)carbamate]",9.36,8.66,–,–
"CCCCOc1ccc(-c2cc3c(cc2F)[C@H](NC(=O)O[C@@H]2CN4CCC2CC4)C(C)(C)C3)cc1Cl [Example 88, (S)-quinuclidin-3-yl((R)-5-(4-butoxy-3-chlorophenyl)-6-fluoro-2,2-dimethyl-2,3-dihydro-1H-inden-1-yl)carbamate]",9.11,7.68,–,–
"COc1cc(-c2cc3c(cc2F)[C@H](NC(=O)O[C@@H]2CN4CCC2CC4)C(C)(C)C3)ccc1OC(C)C [Example 95, (S)-quinuclidin-3-yl((R)-6-fluoro-5-(4-isopropoxy-3-methoxyphenyl)-2,2-dimethyl-2,3-dihydro-1H-inden-1-yl)carbamate]",8.94,7.74,–,–
"CC(C)Oc1ccc(-c2ccc3c(c2)CCC(C)(C)[C@H]3NC(=O)O[C@@H]2CN3CCC2CC3)cc1 [Example 167, (S)-quinuclidin-3-yl((R)-6-(4-isopropoxyphenyl)-2,2-dimethyl-1,2,3,4-tetrahydronaphthalen-1-yl)carbamate]",9.43,8.50,–,–
"COc1cccc(-c2cc3c(cc2F)[C@H](NC(=O)O[C@@H]2CN4CCC2CC4)C(C)(C)CC3)c1 [Example 184, (S)-quinuclidin-3-yl((R)-7-fluoro-6-(3-methoxyphenyl)-2,2-dimethyl-1,2,3,4-tetrahydronaphthalen-1-yl)carbamate]",9.52,8.64,–,–
"CCCc1cccc(-c2cc3c(cc2F)[C@H](NC(=O)O[C@@H]2CN4CCC2CC4)C(C)(C)C3)c1 [Example 72, (S)-quinuclidin-3-yl((R)-6-fluoro-2,2-dimethyl-5-(3-propylphenyl)-2,3-dihydro-1H-inden-1-yl)carbamate]",8.92,7.80,–,–
"CCOc1cccc(-c2cc3c(cc2F)[C@H](NC(=O)O[C@@H]2CN4CCC2CC4)C(C)(C)CC3)c1 [Example 185, (S)-quinuclidin-3-yl((R)-6-(3-ethoxyphenyl)-7-fluoro-2,2-dimethyl-1,2,3,4-tetrahydronaphthalen-1-yl)carbamate]",9.52,8.44,–,–
"CC(C)COc1cccc(-c2cc3c(cc2F)[C@H](NC(=O)O[C@@H]2CN4CCC2CC4)C(C)(C)CC3)c1 [Example 191, (S)-quinuclidin-3-yl((R)-7-fluoro-6-(3-isobutoxyphenyl)-2,2-dimethyl-1,2,3,4-tetrahydronaphthalen-1-yl) carbamate]",–,–,9.21,8.64
"(S)-quinuclidin-3-yl((R)-2,2-dimethyl-6-(3-propylphenyl)-1,2,3,4-tetrahydronaphthalen-1-yl) carbamate [Example 156]",–,–,9.21,8.72
"CCc1cccc(-c2cc3c(cc2F)[C@H](NC(=O)O[C@@H]2CN4CCC2CC4)C(C)(C)CC3)c1 [Example 187, (S)-quinuclidin-3-yl((R)-6-(3-ethylphenyl)-7-fluoro-2,2-dimethyl-1,2,3,4-tetrahydronaphthalen-1-yl)carbamate]",9.29,8.89,–,–
"CCOc1cc2c(cc1-c1ccc(OCC(C)C)cc1)CC(C)(C)[C@H]2NC(=O)O[C@@H]1CN2CCC1CC2 [Example 136, (S)-quinuclidin-3-yl((R)-6-ethoxy-5-(4-isobutoxyphenyl)-2,2-dimethyl-2,3-dihydro-1H-inden-1-yl)carbamate]",9.39,9.06,–,–
"CC1(C)Cc2cc(-c3cc(F)cc(OCC(F)(F)F)c3)ccc2[C@@H]1NC(=O)O[C@@H]1CN2CCC1CC2 [Example 51, (S)-quinuclidin-3-yl((R)-5-(3-fluoro-5-(2,2,2-trifluoroethoxy)phenyl)-2,2-dimethyl-2,3-dihydro-1H-inden-1-yl) carbamate]",–,–,9.19,8.04
"CCCCc1ccc(-c2cc3c(cc2F)[C@H](NC(=O)O[C@@H]2CN4CCC2CC4)C(C)(C)CC3)cc1 [Example 173, (S)-quinuclidin-3-yl((R)-6-(4-butylphenyl)-7-fluoro-2,2-dimethyl-1,2,3,4-tetrahydronaphthalen-1-yl)carbamate]",9.62,9.52,–,–
"CCCOc1ccc(-c2cc3c(cc2F)[C@H](NC(=O)O[C@@H]2CN4CCC2CC4)C(C)(C)C3)cc1F [Example 91, (S)-quinuclidin-3-yl((R)-6-fluoro-5-(3-fluoro-4-propoxyphenyl)-2,2-dimethyl-2,3-dihydro-1H-inden-1-yl)carbamate]",9.48,7.97,–,–
"CC(C)Cc1cccc(-c2cc3c(cc2F)[C@H](NC(=O)O[C@@H]2CN4CCC2CC4)C(C)(C)CC3)c1 [Example 189, (S)-quinuclidin-3-yl((R)-7-fluoro-6-(3-isobutylphenyl)-2,2-dimethyl-1,2,3,4-tetrahydronaphthalen-1-yl)carbamate]",8.98,8.22,–,–
"CC(C)(C)Oc1ccc(-c2ccc3c(c2)CC(C)(C)[C@H]3NC(=O)O[C@@H]2CN3CCC2CC3)cc1 [Example 41, (S)-quinuclidin-3-yl((R)-5-(4-(tert-butoxy)phenyl)-2,2-dimethyl-2,3-dihydro-1H-inden-1-yl)carbamate]",9.05,7.87,–,–
"CC(C)Oc1cccc(-c2cc3c(cc2F)[C@H](NC(=O)O[C@@H]2CN4CCC2CC4)C(C)(C)CC3)c1 [Example 196, (S)-quinuclidin-3-yl((R)-7-fluoro-6-(3-isopropoxyphenyl)-2,2-dimethyl-1,2,3,4-tetrahydronaphthalen-1-yl)carbamate]",9.37,8.22,–,–
"CCCCOc1ccc(-c2cc3c(cc2F)[C@H](NC(=O)O[C@@H]2CN4CCC2CC4)C(C)(C)CC3)cc1 [Example 178, (S)-quinuclidin-3-yl((R)-6-(4-butoxyphenyl)-7-fluoro-2,2-dimethyl-1,2,3,4-tetrahydronaphthalen-1-yl)carbamate]",9.66,9.40,–,–
"CCc1ccc(-c2cc3c(cc2F)[C@H](NC(=O)O[C@@H]2CN4CCC2CC4)C(C)(C)C3)cc1F [Example 93, (S)-quinuclidin-3-yl((R)-5-(4-ethyl-3-fluorophenyl)-6-fluoro-2,2-dimethyl-2,3-dihydro-1H-inden-1-yl)carbamate]",9.43,8.25,–,–
"CCCCOc1ccc(-c2ccc3c(c2)CCC(C)(C)[C@H]3NC(=O)O[C@@H]2CN3CCC2CC3)cc1 [Example 145, (S)-quinuclidin-3-yl((R)-6-(4-butoxyphenyl)-2,2-dimethyl-1,2,3,4-tetrahydronaphthalen-1-yl)carbamate]",9.54,9.52,–,–
"CC(C)COc1cc(Cl)cc(-c2ccc3c(c2)CC(C)(C)[C@H]3NC(=O)O[C@@H]2CN3CCC2CC3)c1 [Example 53, (S)-quinuclidin-3-yl((R)-5-(3-chloro-5-isobutoxyphenyl)-2,2-dimethyl-2,3-dihydro-1H-inden-1-yl)carbamate]",9.17,8.39,–,–
